Here are results for one molecule from ChEMBL document CHEMBL5029145, “Discovery of AZD8154, a Dual PI3Kγδ Inhibitor for the Treatment of Asthma” (J Med Chem, 2021).

This experiment deals with T1, Phosphatidylinositol 4,5-bisphosphate 3-kinase catalytic subunit delta isoform (Homo sapiens, UniProt O00329).
T1 sequence (O00329 whole entry): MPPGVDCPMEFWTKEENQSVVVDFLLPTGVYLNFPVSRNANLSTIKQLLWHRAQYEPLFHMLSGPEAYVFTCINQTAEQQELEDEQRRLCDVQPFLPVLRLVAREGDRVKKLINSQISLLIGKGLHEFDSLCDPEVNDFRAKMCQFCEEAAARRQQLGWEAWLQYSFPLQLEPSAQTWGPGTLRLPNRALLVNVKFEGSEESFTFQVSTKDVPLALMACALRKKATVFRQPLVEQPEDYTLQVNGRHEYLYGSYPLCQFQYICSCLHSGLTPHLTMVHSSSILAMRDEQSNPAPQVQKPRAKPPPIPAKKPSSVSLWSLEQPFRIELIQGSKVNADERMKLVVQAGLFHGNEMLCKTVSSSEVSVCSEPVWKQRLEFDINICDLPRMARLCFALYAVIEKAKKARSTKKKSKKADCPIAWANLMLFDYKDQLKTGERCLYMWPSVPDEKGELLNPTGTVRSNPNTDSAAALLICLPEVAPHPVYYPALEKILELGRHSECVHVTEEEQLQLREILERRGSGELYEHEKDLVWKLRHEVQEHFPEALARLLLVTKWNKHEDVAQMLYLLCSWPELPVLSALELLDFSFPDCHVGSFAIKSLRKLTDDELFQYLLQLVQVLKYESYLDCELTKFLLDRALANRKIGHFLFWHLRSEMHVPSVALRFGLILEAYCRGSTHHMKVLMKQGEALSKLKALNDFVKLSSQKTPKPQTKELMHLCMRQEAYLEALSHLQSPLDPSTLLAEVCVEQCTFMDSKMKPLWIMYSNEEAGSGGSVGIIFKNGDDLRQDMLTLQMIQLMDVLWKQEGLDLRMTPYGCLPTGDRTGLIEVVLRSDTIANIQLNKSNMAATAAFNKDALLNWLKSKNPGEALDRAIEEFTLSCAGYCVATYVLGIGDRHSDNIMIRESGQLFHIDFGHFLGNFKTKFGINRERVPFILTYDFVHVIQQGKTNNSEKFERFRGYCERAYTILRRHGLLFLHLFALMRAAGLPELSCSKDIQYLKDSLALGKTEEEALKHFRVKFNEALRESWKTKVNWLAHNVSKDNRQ
The experiment in a line: Inhibition of PI3Kdelta in anti-IgM-stimulated human JeKo-1 cells assessed as inhibition of AKT phosphorylation at Ser473 residue incubated for 60 mins by TR-FRET assay.

pIC50: −log10 of the molar value.

In the case of `Cc1nc(Nc2cccc(N3CCCC3=O)n2)sc1-c1cc2c(c(S(C)(=O)=O)c1)C(=O)N([C@@H](C)C1CC1)C2` [AZD-8154], the pIC50 (commonly −log10 of the IC50, conventionally taken in molar units) was 8.40.
